Reference: US8361998B2, “Compounds and their use as IKACh blockers” (AstraZeneca AB, priority 2010, dated 2013)

Target: T1, human cardiac ion channel proteins hKir3.1/Kir3.4 (Homo sapiens, UniProt P48544+P48549)
T1 construct: expressed in transfected cells
T1 sequence (P48549 1-501): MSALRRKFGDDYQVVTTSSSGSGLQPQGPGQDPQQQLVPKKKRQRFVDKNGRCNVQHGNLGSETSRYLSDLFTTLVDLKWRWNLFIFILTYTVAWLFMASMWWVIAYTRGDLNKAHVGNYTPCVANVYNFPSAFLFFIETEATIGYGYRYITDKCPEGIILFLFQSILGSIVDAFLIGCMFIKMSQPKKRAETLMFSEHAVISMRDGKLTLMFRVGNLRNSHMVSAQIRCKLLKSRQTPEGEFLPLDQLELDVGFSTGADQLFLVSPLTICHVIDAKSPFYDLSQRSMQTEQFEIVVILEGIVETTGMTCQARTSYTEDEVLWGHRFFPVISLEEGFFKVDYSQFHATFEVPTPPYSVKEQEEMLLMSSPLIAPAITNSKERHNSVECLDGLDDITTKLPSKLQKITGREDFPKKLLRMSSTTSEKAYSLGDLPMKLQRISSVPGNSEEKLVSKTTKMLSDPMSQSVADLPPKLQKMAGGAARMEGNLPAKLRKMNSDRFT
T1 sequence (P48544 1-419): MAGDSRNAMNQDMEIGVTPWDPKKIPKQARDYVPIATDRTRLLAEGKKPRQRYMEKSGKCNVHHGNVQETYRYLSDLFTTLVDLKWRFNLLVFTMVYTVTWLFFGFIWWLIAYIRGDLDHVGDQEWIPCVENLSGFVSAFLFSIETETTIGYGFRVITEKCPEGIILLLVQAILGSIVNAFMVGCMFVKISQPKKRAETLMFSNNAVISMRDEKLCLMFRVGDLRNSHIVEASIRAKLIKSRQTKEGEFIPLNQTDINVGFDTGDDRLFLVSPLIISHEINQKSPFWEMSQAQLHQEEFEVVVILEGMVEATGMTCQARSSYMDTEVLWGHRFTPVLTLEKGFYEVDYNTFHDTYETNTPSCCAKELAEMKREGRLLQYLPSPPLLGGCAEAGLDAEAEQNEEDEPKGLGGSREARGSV
Experiment: Atomic Absorption Screening (AAS) Rb efflux assay of hKir3.1/Kir3.4 block, carbachol/high K+ stimulated, 10-pt or 7-pt CR
Type: cell-based
Conditions: 7-pt CR (0.037 to 27 μmol/L), AAS Rb efflux, CHO-K1 cells expressing hKir3.1/Kir3.4; mean of >3 replicates; read-out: IKACh IC50 7-pt CR, AAS
Procedure, shortened: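 CHO-K1 cells stably co-expressing human Kir3.1/Kir3.4 were Rb-loaded for 3 h at 37° C, preincubated with compound 5 min at RT, then stimulated 10 min with 10 μM carbachol plus 20 mM KCl (final). Supernatant Rb was measured by atomic absorption. Compounds ran at 0.003–67 μmol/L (10-pt) or 0.037–27 μmol/L (7-pt), threefold dilutions; IC50s are means of >4 or >3 replicates respectively.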

Structure (SMILES)	IC50
CC(C)[C@H](CN1CCCC1)N(C)C(=O)c1ccc(Br)c(F)c1 [Example 16.60, (R)-4-Bromo-3-fluoro-N-methyl-N-(3-methyl-1-(pyrrolidin-1-yl)butan-2-yl)benzamide]	16 µM
CC(C)[C@@H](CN1CCCC1)N(C)C(=O)c1ccc(Cl)c(Cl)c1 [Example 16.51, (S)-3,4-Dichloro-N-methyl-N-(3-methyl-1-(pyrrolidin-1-yl)butan-2-yl)benzamide]	0.46 µM
CC(C)c1ccc(C(=O)N(C)[C@H](CN2CCCC2)C(C)C)cc1 [Example 16.49, (S)-4-Isopropyl-N-methyl-N-(3-methyl-1-(pyrrolidin-1-yl)butan-2-yl)benzamide]	7.1 µM

Same assay, conditions: 10-pt CR (0.003 to 67 μmol/L), AAS Rb efflux, CHO-K1 cells expressing hKir3.1/Kir3.4; mean of >4 replicates; read-out: IKACh IC50 10-pt CR, AAS

Structure (SMILES)	IC50
CCN(C(=O)c1ccc(Br)cc1)[C@H](CN1CCCC1)C(C)C [Example 15.1, (S)-4-Bromo-N-ethyl-N-(3-methyl-1-(pyrrolidin-1-yl)butan-2-yl)benzamide]	11 µM
CN(C(=O)c1ccc(F)c(C(F)(F)F)c1)[C@H](CN1CC(O)C1)C1CC1 [Example 7.5, (S)-N-(1-Cyclopropyl-2-(3-hydroxyazetidin-1-yl)ethyl)-4-fluoro-N-methyl-3-(trifluoromethyl)benzamide]	1.8 µM
CCN(C(=O)c1ccc(F)c(C)c1)[C@H](CN1CCCC1)C(C)C [Example 15.2, (S)-N-Ethyl-4-fluoro-3-methyl-N-(3-methyl-1-(pyrrolidin-1-yl)butan-2-yl)benzamide]	18 µM
CC(C)[C@@H](CN1CC(F)C1)N(C)C(=O)c1ccc(F)c(Cl)c1 [Example 1.8, (S)-3-Chloro-4-fluoro-N-(1-(3-fluoroazetidin-1-yl)-3-methylbutan-2-yl)-N-methylbenzamide]	11 µM
Cc1cccc(C(=O)N(C)[C@H](CN2CCC2)C(C)C)c1 [Example 1.16, (S)-N-(1-(Azetidin-1-yl)-3-methylbutan-2-yl)-N,3-dimethyl-benzamide]	17 µM
Cc1cc(C(=O)N(C)[C@H](CN2C[C@@H](O)[C@H](O)C2)C(C)C)ccc1Cl [Example 8.16, 4-Chloro-N-((S)-1-((3R,4R)-3,4-dihydroxypyrrolidin-1-yl)-3-methylbutan-2-yl)-N,3-dimethylbenzamide]	16 µM
CC(C)c1ccc(C(=O)N(C)[C@H](CN2CCCC2)C(C)C)cc1 [Example 16.49, (S)-4-Isopropyl-N-methyl-N-(3-methyl-1-(pyrrolidin-1-yl)butan-2-yl)benzamide]	9.7 µM
CCC[C@@H](CN1CCC(OC)CC1)N(C)C(=O)c1ccc(Cl)cc1 [Example 45, (S)-4-Chloro-N-(1-(4-methoxypiperidin-1-yl)pentan-2-yl)-N-methylbenzamide]	0.68 µM
Cc1cc(C(=O)N(C)[C@H](CN2CCC(C#N)CC2)C(C)C)ccc1F [Example 26, (S)—N-(1-(4-Cyanopiperidin-1-yl)-3-methylbutan-2-yl)-4-fluoro-N,3-dimethylbenzamide]	7 µM
CN(C(=O)c1ccc(F)c(F)c1)[C@H](CN1CC(O)C1)C1CCCC1 (single isomer, unassigned) [32.1, isomer 2]	2.3 µM

More lines, now with the values ahead:

IC50	Structure (SMILES)
0.92 µM	CN(C(=O)c1cccc(C#N)c1)[C@H](CN1CC(O)C1)C1CCCCC1 [Example 36.3, 3-Cyano-N-[(1S)-1-cyclohexyl-2-(3-hydroxyazetidin-1-yl)ethyl]-N-methylbenzamide]
1 µM	CCCC[C@@H](CN1CC(O)C1)N(C)C(=O)c1ccccc1 [Example 33.5, N-[(2S)-1-(3-Hydroxyazetidin-1-yl)hexan-2-yl]-N-methylbenzamide]
17 µM	CC(C)[C@@H](CN1CCCC(F)(F)C1)N(C)C(=O)c1ccc(F)c(Cl)c1 [Example 16.1, (S)-3-Chloro-N-(1-(3,3-difluoropiperidin-1-yl)-3-methylbutan-2-yl)-4-fluoro-N-methylbenzamide]
1.1 µM	CCCC[C@@H](CN1CC(O)C1)N(C)C(=O)c1cccc(C(F)F)c1 [Example 33.10, 3-(Difluoromethyl)-N-[(2S)-1-(3-hydroxyazetidin-1-yl)hexan-2-yl]-N-methylbenzamide]
1.6 µM	CC[C@H](C)[C@@H](CN1CC(O)C1)N(C)C(=O)c1ccc(OC)cc1 [Example 29.6, N-((2S,3S)-1-(3-Hydroxyazetidin-1-yl)-3-methylpentan-2-yl)-4-methoxy-N-methylbenzamide]
7.8 µM	CN(C(=O)c1ccc(F)cc1F)[C@H](CN1CC(O)C1)C1CCC1 [Example 39.4, (S)—N-(1-Cyclobutyl-2-(3-hydroxyazetidin-1-yl)ethyl)-2,4-difluoro-N-methylbenzamide]
0.41 µM	CN(C(=O)c1ccc(F)c(F)c1)[C@H](CN1CC(O)C1)C1CCC1 [Example 39.3, (S)—N-(1-Cyclobutyl-2-(3-hydroxyazetidin-1-yl)ethyl)-3,4-difluoro-N-methylbenzamide]
0.84 µM	CCCC[C@@H](CN1CC(O)C1)N(C)C(=O)c1ccc(C#N)cc1F [Example 33.3, 4-Cyano-2-fluoro-N-[(2S)-1-(3-hydroxyazetidin-1-yl)hexan-2-yl]-N-methylbenzamide]
8 µM	CCC[C@@H](CN1CC[C@H](O)C1)N(C)C(=O)c1ccc(C#N)cc1 [Example 46.1, 4-Cyano-N-((S)-1-((S)-3-hydroxypyrrolidin-1-yl)pentan-2-yl)-N-methylbenzamide]
0.034 µM	Cc1cc(C(=O)N(C)C(CN2CC(O)C2)C2CCCC2)ccc1F (single isomer, unassigned) [32.4, isomer 1]
1.9 µM	CN(C(=O)c1ccc(C(C)(C)C#N)cc1)[C@H](CN1CC(O)C1)C1CCCCC1 [Example 36.5, 4-(2-Cyanopropan-2-yl)-N-[(1S)-1-cyclohexyl-2-(3-hydroxyazetidin-1-yl)ethyl]-N-methylbenzamide]
0.075 µM	CN(C(=O)c1ccc(F)c(Cl)c1)C(CN1CC(O)C1)C1CCCC1 (single isomer, unassigned) [32.7, isomer 1]
11 µM	COc1ccc(C(=O)N(C)[C@@H](CN2CC(O)C2)C2CCC2)cc1F [Example 35.13, N-[(1R)-1-Cyclobutyl-2-(3-hydroxyazetidin-1-yl)ethyl]-3-fluoro-4-methoxy-N-methylbenzamide]

Same assay, conditions: printed as IC50 >67 μM in the 10-pt CR assay or IC50 >27 μM in the 7-pt CR assay; assay format per compound not stated; read-out: IC50

IC50	Structure (SMILES)
> 27 µM	CC(C)[C@@H](CN1C[C@@H](O)[C@H](O)C1)N(C)C(=O)c1ccc(Cl)cc1 [4-Chloro-N-((S)-1-((3R,4R)-3,4-dihydroxypyrrolidin-1-yl)-3-methylbutan-2-yl)-N-methylbenzamide]
> 27 µM	COc1cccc(C(=O)N(C)[C@H](CN2CC(F)C2)C(C)C)c1 [(S)-N-(1-(3-Fluoroazetidin-1-yl)-3-methylbutan-2-yl)-3-methoxy-N-methylbenzamide]
> 27 µM	Cc1cc(C(=O)N(C)C(C)(C)CN2CCCC2)ccc1F [4-Fluoro-N,3-dimethyl-N-(2-methyl-1-(pyrrolidin-1-yl)propan-2-yl)benzamide]
> 27 µM	Cc1cccc(C(=O)N(C)[C@H](CN2CC[C@H](O)C2)C(C)C)c1 [N-[(1S)-1-{[(3S)-3-Hydroxypyrrolidin-1-yl]methyl}-2-methylpropyl]-N,3-dimethylbenzamide]
> 27 µM	CC(C)[C@H](CN1CCC1)N(C)C(=O)c1ccc(Br)cc1 [(R)-N-(1-(Azetidin-1-yl)-3-methylbutan-2-yl)-4-bromo-N-methylbenzamide]
> 27 µM	COc1ccc(C(=O)N(C)[C@H](CN2CCC2)C(C)C)cc1F [(S)-N-(1-(Azetidin-1-yl)-3-methylbutan-2-yl)-3-fluoro-4-methoxy-N-methylbenzamide]
> 27 µM	CC(C)[C@@H](CCN1CCCC1)N(C)C(=O)c1ccccc1Cl [2-Chloro-N-methyl-N-[(1R)-2-methyl-1-(2-pyrrolidin-1-ylethyl)propyl]benzamide]
> 27 µM	CC(C)[C@@H](CN1C[C@H](O)[C@@H](O)C1)N(C)C(=O)c1ccc(C#N)cc1 [4-Cyano-N-((S)-1-((3S,4S)-3,4-dihydroxypyrrolidin-1-yl)-3-methylbutan-2-yl)-N-methylbenzamide]
> 27 µM	CC(C)[C@@H](CN1CCC1)N(C)C(=O)c1ccc(C#N)cc1 [(S)-N-(1-(Azetidin-1-yl)-3-methylbutan-2-yl)-4-cyano-N-methylbenzamide]

Structure (SMILES)	IC50
Cc1cc(F)ccc1C(=O)N(C)[C@H](CN1CCCC1)C(C)(C)C [(S)-N-(3,3-Dimethyl-1-(pyrrolidin-1-yl)butan-2-yl)-4-fluoro-N,2-dimethylbenzamide]	> 27 µM
